Experimental findings from patent US11919854B2, “P2RX7 modulators in therapy” (Centre national de la recherche scientifique, priority 2018, dated 2024) are described below.

Data set [1] relates to DSS-induced colitis. Description: DSS-induced colitis mouse model. Type of data set: in vivo, C57BL/6J mice. On the procedure: (A) Body weight loss and (B) clinical scores from C57BL/6J treated with 3% DSS during 5 days (J1 to J5), followed by 10 days of normal tap water. The treated group received HEI2328 (ip, 2.3 mg/kg in PBS, 10% DMSO). Data are representative of 2 independent experiments (n=20). Mean±SEM are shown. *, p<0.05; **, p<0.01 (Mann-Whitney test).
The inflammatory index was scored in a longitudinal (A) and a transversal section of the colon (B). Data are representative of 2 independent experiments (n=20). Mean±SEM are shown. *, p<0.05; **, p<0.01 (Mann-Whitney test).
(A-D) Phenotypic analysis of immune cells in spleen of 20 mice treated with HEI2328 or non treated. Data are representative of 2 independent experiments (n=20). Mean±SEM are shown. *, p<0.05; **, p<0.01 (Mann-Whitney test).
All mice received dextran sulfate sodium (3% DSS, TbS consultancy) ad libitum from day 1 to 5 and returned to normal tap water for the following 10 days. Control mice (n=20) were injected daily intraperitoneally with placebo (PBS/10% DMSO), whereas treated mice received 2.3 mg/kg HEI2328 in PBS/10% DMSO. The inventors used the following semi-quantitative clinical score:
Body weight loss was scored as follows: 0, no loss; 1, loss <5%; 2, loss <10%; 3, loss <20%; and 4, loss >20%.
The scores for stool consistency were measured as 0, normal; 1, loose stools; 2, watery diarrhea; or 3, severe watery diarrhea.
Rectal bleeding was scored as 0, no blood; 1, presence of petechia; 2, stools with a trace of blood; or 3, bleeding.
Inflammation score was performed by trained pathologists. Briefly, the severity of inflammation (none, mild, moderate, severe), extent of inflammation (none, mucosa, mucosa, and submucosa, transmural), crypt damage (none, basal to 1/3, basal to 2/3, crypt loss, crypts, and epithelium loss), and percentage of tissue affected by inflammation (0, 25, 50, 75, and 100%) were scored.

The test system of data set [2] is NCI panel of 60 tumor cell lines. As to the kind of experiment: Toxicity on NCI panel of 60 tumor cell lines. The data set is classed as cell-based. The settings on record: HEK cell lines stably transfected with hP2RX7 or mP2RX7 and NCI panel of 60 human tumor cell lines. The source says:
Toxicity of HEI_2333 and HEI_2336 was already tested on the NCI panel of 60 tumor cell lines (NCI 60-cell panel).

In data set [3] the test system is B16F10 or LLC (Lewis Lung Cancer) cells. Description: Syngeneic tumor mice models, statements covering both B16F10 and LLC. The data set is classed as in vivo, C57BL6 mice. The protocol: 5×10^5 LLC or 5×10^5 B16F10 cells were injected sub cutaneously in the right flank of C57BL6 mice. Mice received HEI3090 (ip, 2.5 mg/kg in 10% DMSO/PBS) daily or placebo (10% DMSO/PBS). A,C. incidence of tumor appearance B,D. Tumor size (mm2) and tumor weight at sacrifice day (J12). E. HEI-treated tumors are more immunogenic. Expression of CMH1 (H2K^b/D^b) and PD-L1 by LLC (black) and B16F10 (grey) tumors is shown in dot plots. Numbers highlighted the percentage of tumor cells positive for H2K^b/D^b and PD-L1. […] F. CD-45 positive infiltrates is increased in LLC and B16F10 tumors. *, p<0.05; **, p<0.01; ***, p<0.001 Mann-Whitney test.
5×10^5 LLC or 5×10^5 B16F10 cells were injected sub cutaneously in the right flank of C57BL6 mice. Mice received HEI3090 (ip, 2.5 mg/kg in 10% DMSO/PBS) daily or placebo (10% DMSO/PBS). A. The quantity of immunosuppressive cells is reduced. Dot plot of representative experiment. Numbers highlighted the percentage of M-MDSC and PMN-MDSC. […] B. The quantity of effector T cells ([…], NK, CD4+) is increased.
4.2. By killing tumoral cells, HEI3090 may represent a new anti-tumor treatment. To test this hypothesis, immunocompetent C57B16J mice were subcutaneously injected with 5×10^5 B16F10 or 5×10^5 LLC (Lewis Lung Cancer) cells and treated daily with HEI3090 (ip, 2.5 mg/kg in 10% DMSO/PBS) or placebo (10% DMSO/PBS). […] In both tumor mice models, tumors weight in the treated group was reduced by 10-fold in the B16F10 model (8 mg vs 81 mg) and by 4-folds in the LLC model (80 mg vs 295 mg). Of interest, tumors from the HEI3090 treated group are more immunogenic than tumors from the placebo group.

A short description of data set [4]: Plasmatic concentration after intraperitoneal administration (LC-MS/MS). The settings on record: ip. The data set is classed as in vivo, mice. On the procedure: B. HEI 3090 is found within plasma until 18 h after intraperitoneal administration. Intraperitoneal administration of HEI-3090 (0.166 mg/mL in 10% DMSO) was performed and serum was taken at 0, 10, 20, 30, […], 120, 240, 360, 1080 and 1440 min. Plasmatic concentration was determined by LC-MS/MS and reached a maximum of 2.5 μM.
Stability was studied in the mouse liver microsome system—and human, not shown—(FIG. 13A) and directly in vivo, for HEI3090 molecule (FIG. 13B). These experiments highlighted that HEI3090 is found at a concentration of maximum 2.5 μM in the plasma of mice injected with HEI3090 (ip, 1.5 mg/kg in 10% DMSO).

Consider `O=C(NCc1ccc(Cl)cc1Cl)[C@@H]1CCC(=O)N1C(=O)Nc1ccc(Cl)c(Cl)c1` [HEI2328, (S)—N^2-(2,4-Dichlorobenzyl)-N^1-(3,4-dichlorophenyl)-5-oxopyrrolidine-1,2-dicarboxamide], for which, in data set [1] (2.3 mg/kg ip daily), the clinical score result is “more healthy and recovered quicker than control mice”; the “recovery of original weight” value is recorded as “recovered their original weight after 15 days”. The “proportion of inflammatory monocytes in spleen” value in data set [1] (CD11b+CD11c−Ly6c+Ly6g−CD3−NK1.1−B220−) is given as “statistically decreased”. In addition, in data set [1] (comparison with published antagonist data), the “reduction of clinical signs compared with classical P2RX7 antagonists (literature)” value is reported as “more efficient than classical P2RX7 antagonists”. For the same compound, the “inflammatory (histologic) index of colon” value in data set [1] (day 15, colon sections) was “very low inflammatory index”. Also, the body weight loss result in data set [1] (days 6 to 9, 2.3 mg/kg ip daily, 3% DSS days 1-5) is listed as “lost statistically less weight than the control group”. For the same compound, the “myeloid infiltrate in spleen” value in data set [1] (treated mice (28 in non treated)) came to 17%. For the same compound, the “lymphoid population in spleen” value in data set [1] (treated mice (67 in non treated)) was 76%. Also, in data set [1] (treated vs non treated), the “Treg and Tγδ lymphocytes within lymphoid populations of spleen” value is on record as “increased”; the “proportion of conventional DC (cDC) and plasmacytoid DC (pDC) in spleen” value is given as “did not modify”.
Regarding `O=C(NCc1ccc(Cl)cc1Cl)[C@@H]1CCC(=O)N1C(=O)Nc1ccc(Cl)nc1` [HEI3090, (S)—N^1-(6-Chloropyridin-3-yl)-N^2-(2,4-dichlorobenzyl)-5-oxopyrrolidine-1,2-dicarboxamide], the “toxicity in absence of the endogenous P2RX7 ligand (ATP)” value in data set [2] was “non-toxic”. For the same compound, in data set [3] (HEI3090 ip 2.5 mg/kg daily), the “CD45 positive cells in tumors” value is given as “enriched with CD45 positive cells”; the “delay of tumor appearance” value fell in the range of 1 to 4 days; the “ratio between effector cells (Tγδ, NK, CD4+) and total MDSC” value is “in favor to effector cells”; the “tumor expression of PD-L1 vs placebo” value came to 2 fold. Moreover, in data set [3] (HEI3090 ip 2.5 mg/kg daily), the “tumor expression of major complex histocompatibility 1 (MCH1) vs placebo” value is listed as 2 fold and the tumor growth entry was “potently inhibits tumor growth”. In data set [3] (HEI3090 ip 2.5 mg/kg daily, sacrifice day J12), the “tumor volume and tumor weight” value was “drastically reduced”. This compound gave an overall mice survival in data set [3] (therapeutically treated mice (increase from 22)) of 50 days. Besides, the “immune cells within the spleen of treated mice” value in data set [3] (tumor bearing mice treated with HEI3090) is recorded as “unable to detect any modification of immune cells within the spleen”. Besides, in data set [4] (0.166 mg/mL in 10% DMSO), the “time found within plasma after intraperitoneal administration” value was at most 18 h. The compound further had a maximum plasmatic concentration in data set [4] (mice, 1.5 mg/kg in 10% DMSO (0.166 mg/mL in 10% DMSO)) of 2.5 µM.
